# Laboratory results published in ChEMBL document CHEMBL1201862, “PubChem BioAssay data set” (2004).
#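 Tested at 5 concentrations; 48 h exposure; 96-well plates; endpoints linearly interpolated, else capped at highest concentration. GI50 = concentration required for 50% inhibition of growth.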 Calls of active or inactive are those of the source. Rule as the data show it: active = GI50 up to about 1.1 µM and inactive = higher.
# Key:
# Assay in all cases: DTP human tumour cell line panel, 48 h
# HOP-62 = system: HOP-62
# NCI-H23 = system: NCI-H23
# U-251 = system: U-251
# HOP-18 = system: HOP-18
# M19-MEL = system: M19-MEL
# NCI-H460 = system: NCI-H460
# SNB-75 = system: SNB-75
# OVCAR-5 = system: OVCAR-5
# A498 = system: A498
# SK-MEL-5 = system: SK-MEL-5
# DLD-1 = system: DLD-1
# NCI-H226 = system: NCI-H226
# OVCAR-8 = system: OVCAR-8
# UACC-257 = system: UACC-257
# KM-20L2 = system: KM-20L2
# COLO 205 = system: COLO 205
# M14 = system: M14
# OVCAR-3 = system: OVCAR-3
# NCI-H522 = system: NCI-H522
# CAKI-1 = system: CAKI-1
# XF498 = system: XF498
# HCT-15 = system: HCT-15
# SF-295 = system: SF-295
# ACHN = system: ACHN
# SK-OV-3 = system: SK-OV-3
# SK-MEL-28 = system: SK-MEL-28
# DMS-273 = system: DMS-273
# LOX IMVI = system: LOX IMVI
# DMS-114 = system: DMS-114
# SK-MEL-2 = system: SK-MEL-2
# MOLT-4 = system: MOLT-4
# A549 = system: A549
# K562 = system: K562
# CCRF-CEM = system: CCRF-CEM
# IGROV-1 = system: IGROV-1
# SNB-78 = system: SNB-78
# HL-60 = system: HL-60
# HOP-92 = system: HOP-92
# SW-620 = system: SW-620
# SF-268 = system: SF-268
# HCC 2998 = system: HCC 2998
# SNB-19 = system: SNB-19
# SR = system: SR
# HT-29 = system: HT-29
# KM12 = system: KM12
# HCT-116 = system: HCT-116
# TK-10 = system: TK-10
# Malme-3M = system: Malme-3M
# RPMI-8226 = system: RPMI-8226
# SN12C = system: SN12C
# OVCAR-4 = system: OVCAR-4
# LXFL 529 = system: LXFL 529
# 786-0 = system: 786-0
# SF-539 = system: SF-539
# EKVX = system: EKVX
# RXF 393 = system: RXF 393
# UO-31 = system: UO-31
# UACC-62 = system: UACC-62
compound,measurement,setting,value
O=C(O)Cc1ccc2c(c1O)C(=O)c1c(ccc(CC(=O)O)c1O)C2=O,GI50,HOP-62,> 100 µM (inactive)
same,GI50,NCI-H23,> 100 µM (inactive)
same,GI50,U-251,> 100 µM (inactive)
same,GI50,HOP-18,> 100 µM (inactive)
same,GI50,M19-MEL,> 100 µM (inactive)
same,GI50,NCI-H460,> 100 µM (inactive)
same,GI50,SNB-75,> 100 µM (inactive)
same,GI50,OVCAR-5,> 100 µM (inactive)
same,GI50,A498,> 100 µM (inactive)
same,GI50,SK-MEL-5,> 100 µM (inactive)
same,GI50,DLD-1,> 100 µM (inactive)
same,GI50,NCI-H226,> 100 µM (inactive)
same,GI50,OVCAR-8,> 100 µM (inactive)
same,GI50,UACC-257,> 100 µM (inactive)
same,GI50,KM-20L2,> 100 µM (inactive)
same,GI50,COLO 205,> 100 µM (inactive)
same,GI50,M14,> 100 µM (inactive)
same,GI50,OVCAR-3,> 100 µM (inactive)
same,GI50,NCI-H522,> 100 µM (inactive)
same,GI50,CAKI-1,> 100 µM (inactive)
same,GI50,XF498,> 100 µM (inactive)
same,GI50,HCT-15,> 100 µM
same,GI50,SF-295,> 100 µM (inactive)
same,GI50,ACHN,> 100 µM (inactive)
same,GI50,SK-OV-3,> 100 µM (inactive)
same,GI50,SK-MEL-28,> 100 µM (inactive)
same,GI50,DMS-273,> 100 µM (inactive)
same,GI50,LOX IMVI,> 100 µM (inactive)
same,GI50,DMS-114,> 100 µM (inactive)
same,GI50,SK-MEL-2,> 100 µM (inactive)
same,GI50,MOLT-4,> 100 µM (inactive)
same,GI50,A549,> 100 µM (inactive)
same,GI50,K562,> 100 µM (inactive)
same,GI50,CCRF-CEM,> 100 µM (inactive)
same,GI50,IGROV-1,> 100 µM (inactive)
same,GI50,SNB-78,> 100 µM (inactive)
same,GI50,HL-60,> 100 µM (inactive)
same,GI50,HOP-92,> 100 µM (inactive)
same,GI50,SW-620,> 100 µM (inactive)
same,GI50,SF-268,> 100 µM (inactive)
same,GI50,HCC 2998,> 100 µM (inactive)
same,GI50,SNB-19,> 100 µM (inactive)
same,GI50,SR,> 100 µM (inactive)
same,GI50,HT-29,> 100 µM (inactive)
same,GI50,KM12,> 100 µM (inactive)
same,GI50,HCT-116,> 100 µM (inactive)
same,GI50,TK-10,> 100 µM (inactive)
same,GI50,Malme-3M,> 100 µM (inactive)
same,GI50,RPMI-8226,> 100 µM (inactive)
same,GI50,SN12C,> 100 µM (inactive)
same,GI50,OVCAR-4,> 100 µM (inactive)
same,GI50,LXFL 529,> 100 µM (inactive)
same,GI50,786-0,> 100 µM (inactive)
same,GI50,SF-539,> 100 µM (inactive)
same,GI50,EKVX,> 100 µM (inactive)
Cc1c(OCCCOc2ccc3c(=O)cc(-c4ccccc4)oc3c2C)ccc2c(=O)cc(-c3ccccc3)oc12,GI50,HOP-62,61.1 µM (inactive)
same,GI50,NCI-H23,> 100 µM (inactive)
same,GI50,U-251,> 100 µM (inactive)
same,GI50,HOP-18,> 100 µM (inactive)
same,GI50,M19-MEL,> 100 µM (inactive)
same,GI50,NCI-H460,> 100 µM (inactive)
same,GI50,OVCAR-5,> 100 µM (inactive)
same,GI50,A498,> 100 µM (inactive)
same,GI50,SK-MEL-5,> 100 µM (inactive)
same,GI50,DLD-1,> 100 µM (inactive)
same,GI50,RXF 393,74 µM (inactive)
same,GI50,OVCAR-8,> 100 µM (inactive)
same,GI50,UACC-257,> 100 µM (inactive)
same,GI50,UO-31,> 100 µM (inactive)
same,GI50,KM-20L2,> 100 µM (inactive)
same,GI50,M14,> 100 µM (inactive)
same,GI50,OVCAR-3,> 100 µM (inactive)
same,GI50,NCI-H522,> 100 µM (inactive)
same,GI50,CAKI-1,> 100 µM (inactive)
same,GI50,XF498,> 100 µM (inactive)
same,GI50,HCT-15,> 100 µM
same,GI50,SF-295,> 100 µM (inactive)
same,GI50,SK-OV-3,> 100 µM (inactive)
same,GI50,SK-MEL-28,> 100 µM (inactive)
same,GI50,DMS-273,> 100 µM (inactive)
same,GI50,LOX IMVI,> 100 µM (inactive)
same,GI50,DMS-114,> 100 µM (inactive)
same,GI50,SK-MEL-2,> 100 µM (inactive)
same,GI50,MOLT-4,> 100 µM (inactive)
same,GI50,A549,> 100 µM (inactive)
same,GI50,K562,59.2 µM (inactive)
same,GI50,CCRF-CEM,68.7 µM (inactive)
same,GI50,IGROV-1,> 100 µM (inactive)
same,GI50,SNB-78,51.2 µM (inactive)
same,GI50,HL-60,41.4 µM (inactive)
same,GI50,HOP-92,> 100 µM (inactive)
same,GI50,UACC-62,> 100 µM (inactive)
same,GI50,SW-620,> 100 µM (inactive)
same,GI50,SF-268,> 100 µM (inactive)
same,GI50,SNB-19,> 100 µM (inactive)
same,GI50,SR,44.2 µM (inactive)
same,GI50,HT-29,> 100 µM (inactive)
same,GI50,KM12,> 100 µM (inactive)
same,GI50,HCT-116,> 100 µM (inactive)
same,GI50,TK-10,> 100 µM (inactive)
same,GI50,Malme-3M,> 100 µM (inactive)
same,GI50,RPMI-8226,> 100 µM (inactive)
same,GI50,LXFL 529,> 100 µM (inactive)
same,GI50,786-0,> 100 µM (inactive)
same,GI50,SF-539,> 100 µM (inactive)
same,GI50,EKVX,> 100 µM (inactive)
